Results on 6 molecules are retold here after ChEMBL document CHEMBL1201862, “PubChem BioAssay data set” (2004).

The source made the active and inactive calls.

One data set has as its target Cytochrome P450 2D6 (Homo sapiens, UniProt P10635).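 Note: CYP2D6 member of a cytochrome P450 panel assay.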
The target in the next data set is Cytochrome P450 2C19 (Homo sapiens, UniProt P33261). The data set is described as follows: Cytochrome panel assay with activity outcomes. Panel member name: p450-cyp2c19 Compounds with AC50 equal or less than 10 uM are considered active. Format: functional.
The target of data set [1] is Lysine-specific demethylase 4A (Homo sapiens, UniProt O75164). The data set is described as follows: JMJD2A histone demethylase inhibitors, dose response, selectivity assay for GASC-1 inhibitor project, biochemical, DELFIA europium, cherry-picked samples (AID 488840).
The target in data set [2] is Lysine-specific demethylase 4C (Homo sapiens, UniProt Q9H3R0). The data set is described as follows: GASC-1 (JMJD2C) histone demethylase inhibitors, dose response, biochemical, DELFIA europium, cherry-picked samples (AID 488835). Type of data set: functional.
In another data set the target is T1, Coagulation factor XII (Homo sapiens, UniProt P00748).
T1 sequence (P00748 whole entry): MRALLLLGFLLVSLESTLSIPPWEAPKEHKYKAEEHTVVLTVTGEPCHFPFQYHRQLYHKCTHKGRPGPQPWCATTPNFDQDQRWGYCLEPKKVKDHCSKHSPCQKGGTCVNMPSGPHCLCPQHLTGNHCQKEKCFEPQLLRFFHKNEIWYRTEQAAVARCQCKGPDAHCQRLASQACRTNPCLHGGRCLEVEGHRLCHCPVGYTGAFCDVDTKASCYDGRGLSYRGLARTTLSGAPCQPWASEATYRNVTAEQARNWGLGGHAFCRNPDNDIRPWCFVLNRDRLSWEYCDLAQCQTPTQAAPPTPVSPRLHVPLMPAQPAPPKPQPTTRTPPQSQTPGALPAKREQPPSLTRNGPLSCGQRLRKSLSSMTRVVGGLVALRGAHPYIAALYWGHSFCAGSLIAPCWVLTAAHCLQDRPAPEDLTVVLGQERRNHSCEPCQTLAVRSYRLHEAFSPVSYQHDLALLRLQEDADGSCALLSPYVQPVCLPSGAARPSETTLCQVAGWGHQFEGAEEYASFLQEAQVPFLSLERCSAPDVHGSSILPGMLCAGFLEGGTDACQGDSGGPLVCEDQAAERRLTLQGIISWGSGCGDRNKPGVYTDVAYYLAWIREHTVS
The data set is described as follows: FXIIa inhibitor potency, concentration-response, biochemical (AID 716). Format: functional.

For data set [3], the target named is G-protein coupled receptor 55 (Homo sapiens, UniProt Q9Y2T6). As to the kind of experiment: GPR55 antagonists blocking LPI-driven arrestin recruitment, primary screen, imaging, U2OS, beta-arrestin-GFP, LPI agonist (AID 2013).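 Note: antagonist potency measured as reduced agonist-driven arrestin aggregation.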 Type of data set: functional.
Data set [4] is described as follows: HEp-2 cell cytotoxicity, dose response, cytotoxicity control for RSV inhibitor project, HTS (AID 2410). Format: functional. To be noted: human respiratory syncytial virus.
For a further data set, the target named is Integrin alpha-L (Mus musculus, UniProt P24063). As to the kind of experiment: modulators of CD8 T cell-vesicle binding, dose response, powder samples, mouse 2C CD8+ cells (AID 504565). Format: functional.
The next data set concerns the target CAAX prenyl protease 1 (Saccharomyces cerevisiae S288c, UniProt P47154). As to the kind of experiment: Ste24 protease inhibitors, dose response, biochemical, S. cerevisiae, plate reader, cherry-pick (AID 488815).

Cytochrome P450 2D6, sequence (P10635 whole entry): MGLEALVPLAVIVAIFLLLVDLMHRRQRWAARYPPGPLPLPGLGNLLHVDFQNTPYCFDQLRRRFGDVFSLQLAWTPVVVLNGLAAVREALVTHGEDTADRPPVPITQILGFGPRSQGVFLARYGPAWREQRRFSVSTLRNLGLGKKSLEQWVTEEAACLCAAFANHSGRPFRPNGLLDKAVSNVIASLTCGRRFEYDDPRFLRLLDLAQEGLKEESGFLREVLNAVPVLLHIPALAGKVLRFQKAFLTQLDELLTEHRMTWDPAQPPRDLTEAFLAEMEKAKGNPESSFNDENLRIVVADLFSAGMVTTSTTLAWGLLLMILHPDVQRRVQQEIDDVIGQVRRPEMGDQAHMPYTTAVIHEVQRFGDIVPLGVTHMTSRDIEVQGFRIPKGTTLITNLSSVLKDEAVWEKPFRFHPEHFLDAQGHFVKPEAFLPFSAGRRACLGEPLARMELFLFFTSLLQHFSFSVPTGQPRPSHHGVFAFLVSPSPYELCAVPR
Lysine-specific demethylase 4C, sequence (Q9H3R0 whole entry): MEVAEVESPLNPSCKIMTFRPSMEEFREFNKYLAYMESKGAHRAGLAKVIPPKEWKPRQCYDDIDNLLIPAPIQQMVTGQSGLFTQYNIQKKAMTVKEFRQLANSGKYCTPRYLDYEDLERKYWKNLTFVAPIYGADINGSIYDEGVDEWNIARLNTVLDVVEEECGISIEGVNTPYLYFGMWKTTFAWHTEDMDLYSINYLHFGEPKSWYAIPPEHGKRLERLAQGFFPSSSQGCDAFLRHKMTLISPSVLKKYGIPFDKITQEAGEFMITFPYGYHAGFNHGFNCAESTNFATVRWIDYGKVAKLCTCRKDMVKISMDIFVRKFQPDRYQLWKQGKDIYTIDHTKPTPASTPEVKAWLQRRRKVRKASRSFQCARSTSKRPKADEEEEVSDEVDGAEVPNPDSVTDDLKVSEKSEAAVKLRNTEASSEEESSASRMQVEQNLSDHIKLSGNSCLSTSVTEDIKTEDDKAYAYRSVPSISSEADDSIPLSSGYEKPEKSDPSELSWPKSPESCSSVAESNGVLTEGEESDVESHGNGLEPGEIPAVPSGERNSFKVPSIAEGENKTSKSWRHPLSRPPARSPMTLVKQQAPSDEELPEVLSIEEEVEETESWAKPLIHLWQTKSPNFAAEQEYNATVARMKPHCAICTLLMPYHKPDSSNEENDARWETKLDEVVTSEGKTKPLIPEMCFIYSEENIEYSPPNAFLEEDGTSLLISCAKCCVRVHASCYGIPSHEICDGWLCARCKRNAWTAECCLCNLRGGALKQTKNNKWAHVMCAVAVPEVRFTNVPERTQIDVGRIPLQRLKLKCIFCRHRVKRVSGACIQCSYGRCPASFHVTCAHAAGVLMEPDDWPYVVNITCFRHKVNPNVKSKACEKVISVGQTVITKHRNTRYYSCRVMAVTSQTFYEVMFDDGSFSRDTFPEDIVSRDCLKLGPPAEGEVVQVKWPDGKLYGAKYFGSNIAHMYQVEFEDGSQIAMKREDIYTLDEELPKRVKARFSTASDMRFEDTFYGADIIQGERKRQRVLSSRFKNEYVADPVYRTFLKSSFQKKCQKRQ
Integrin alpha-L, sequence (P24063 whole entry): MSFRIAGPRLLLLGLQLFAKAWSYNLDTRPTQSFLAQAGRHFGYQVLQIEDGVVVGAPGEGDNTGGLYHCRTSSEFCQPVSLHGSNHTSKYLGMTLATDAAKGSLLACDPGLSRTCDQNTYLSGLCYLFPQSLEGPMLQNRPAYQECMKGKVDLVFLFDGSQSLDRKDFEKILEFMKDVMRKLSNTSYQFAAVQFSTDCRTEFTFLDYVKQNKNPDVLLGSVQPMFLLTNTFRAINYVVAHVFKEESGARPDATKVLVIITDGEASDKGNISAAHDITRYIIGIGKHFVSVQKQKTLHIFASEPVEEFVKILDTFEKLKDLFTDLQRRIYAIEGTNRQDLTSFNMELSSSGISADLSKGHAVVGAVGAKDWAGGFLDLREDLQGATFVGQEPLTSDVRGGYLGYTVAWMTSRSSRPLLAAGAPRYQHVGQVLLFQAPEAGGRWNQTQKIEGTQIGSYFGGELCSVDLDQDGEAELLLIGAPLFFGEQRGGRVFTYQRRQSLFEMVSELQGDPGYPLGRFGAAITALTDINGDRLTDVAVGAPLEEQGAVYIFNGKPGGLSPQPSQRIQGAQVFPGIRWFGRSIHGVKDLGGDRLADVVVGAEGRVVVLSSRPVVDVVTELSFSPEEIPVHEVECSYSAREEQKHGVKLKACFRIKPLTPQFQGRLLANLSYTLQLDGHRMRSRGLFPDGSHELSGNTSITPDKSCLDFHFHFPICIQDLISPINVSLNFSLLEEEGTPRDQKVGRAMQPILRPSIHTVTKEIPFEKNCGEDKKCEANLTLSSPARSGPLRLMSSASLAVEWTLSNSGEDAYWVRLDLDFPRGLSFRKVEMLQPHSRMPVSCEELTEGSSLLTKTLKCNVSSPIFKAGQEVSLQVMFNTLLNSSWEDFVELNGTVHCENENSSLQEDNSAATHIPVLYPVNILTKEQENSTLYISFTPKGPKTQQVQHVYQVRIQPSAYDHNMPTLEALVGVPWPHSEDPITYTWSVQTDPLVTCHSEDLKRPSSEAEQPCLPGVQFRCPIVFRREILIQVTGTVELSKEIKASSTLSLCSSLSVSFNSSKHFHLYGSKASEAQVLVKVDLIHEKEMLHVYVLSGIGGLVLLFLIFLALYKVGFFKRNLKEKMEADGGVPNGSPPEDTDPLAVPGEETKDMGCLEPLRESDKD
Lysine-specific demethylase 4A, sequence (O75164 whole entry): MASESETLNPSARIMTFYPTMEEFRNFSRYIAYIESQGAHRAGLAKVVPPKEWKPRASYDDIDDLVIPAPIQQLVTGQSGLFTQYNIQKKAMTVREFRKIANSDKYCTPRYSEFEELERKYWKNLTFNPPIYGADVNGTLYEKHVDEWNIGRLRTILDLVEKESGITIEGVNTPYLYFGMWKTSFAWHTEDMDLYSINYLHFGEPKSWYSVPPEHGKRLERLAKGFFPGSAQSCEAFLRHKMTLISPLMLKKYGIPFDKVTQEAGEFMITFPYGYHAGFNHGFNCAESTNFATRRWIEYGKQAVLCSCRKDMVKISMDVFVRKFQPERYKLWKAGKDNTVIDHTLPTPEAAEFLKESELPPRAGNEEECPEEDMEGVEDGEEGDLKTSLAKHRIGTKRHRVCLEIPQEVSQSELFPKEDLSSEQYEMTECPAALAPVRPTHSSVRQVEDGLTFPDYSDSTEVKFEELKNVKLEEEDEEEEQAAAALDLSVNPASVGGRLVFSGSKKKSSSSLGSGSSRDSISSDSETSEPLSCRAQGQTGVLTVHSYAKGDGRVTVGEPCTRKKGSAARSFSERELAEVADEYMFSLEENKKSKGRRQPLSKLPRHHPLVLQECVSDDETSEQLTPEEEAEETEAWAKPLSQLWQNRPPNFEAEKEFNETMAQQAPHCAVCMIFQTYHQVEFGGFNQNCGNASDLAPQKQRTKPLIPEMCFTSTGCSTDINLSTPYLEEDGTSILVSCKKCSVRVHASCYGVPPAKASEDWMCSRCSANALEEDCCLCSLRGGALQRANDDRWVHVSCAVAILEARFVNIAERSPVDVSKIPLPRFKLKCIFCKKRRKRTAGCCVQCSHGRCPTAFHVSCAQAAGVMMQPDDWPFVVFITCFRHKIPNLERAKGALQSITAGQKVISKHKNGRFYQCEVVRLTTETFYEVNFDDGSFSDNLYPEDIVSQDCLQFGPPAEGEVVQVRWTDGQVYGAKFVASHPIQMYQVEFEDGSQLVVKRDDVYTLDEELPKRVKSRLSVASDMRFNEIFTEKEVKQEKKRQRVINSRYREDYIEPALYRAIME
Cytochrome P450 2C19, sequence (P33261 whole entry): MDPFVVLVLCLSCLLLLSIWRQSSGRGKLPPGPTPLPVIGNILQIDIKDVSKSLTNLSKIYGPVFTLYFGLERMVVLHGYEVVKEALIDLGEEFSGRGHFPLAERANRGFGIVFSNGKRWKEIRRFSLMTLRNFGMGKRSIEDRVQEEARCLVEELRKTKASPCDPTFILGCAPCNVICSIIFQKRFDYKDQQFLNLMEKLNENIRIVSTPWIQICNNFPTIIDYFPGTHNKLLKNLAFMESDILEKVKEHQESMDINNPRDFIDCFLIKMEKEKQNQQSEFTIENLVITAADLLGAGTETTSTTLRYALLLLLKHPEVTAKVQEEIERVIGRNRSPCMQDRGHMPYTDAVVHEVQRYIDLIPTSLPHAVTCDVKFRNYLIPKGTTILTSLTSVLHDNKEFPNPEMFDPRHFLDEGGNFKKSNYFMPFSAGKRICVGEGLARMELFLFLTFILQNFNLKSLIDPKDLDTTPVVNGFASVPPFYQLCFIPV
G-protein coupled receptor 55, sequence (Q9Y2T6 whole entry): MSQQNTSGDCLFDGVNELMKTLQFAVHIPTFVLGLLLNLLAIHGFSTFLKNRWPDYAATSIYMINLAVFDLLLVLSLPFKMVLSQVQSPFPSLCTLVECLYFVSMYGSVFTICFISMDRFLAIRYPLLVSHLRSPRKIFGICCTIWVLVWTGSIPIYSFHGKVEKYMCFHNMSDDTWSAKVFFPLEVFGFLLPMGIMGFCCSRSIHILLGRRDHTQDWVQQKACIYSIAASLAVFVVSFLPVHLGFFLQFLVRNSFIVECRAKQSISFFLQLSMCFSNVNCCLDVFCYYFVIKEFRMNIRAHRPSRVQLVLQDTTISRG
CAAX prenyl protease 1, sequence (P47154 whole entry): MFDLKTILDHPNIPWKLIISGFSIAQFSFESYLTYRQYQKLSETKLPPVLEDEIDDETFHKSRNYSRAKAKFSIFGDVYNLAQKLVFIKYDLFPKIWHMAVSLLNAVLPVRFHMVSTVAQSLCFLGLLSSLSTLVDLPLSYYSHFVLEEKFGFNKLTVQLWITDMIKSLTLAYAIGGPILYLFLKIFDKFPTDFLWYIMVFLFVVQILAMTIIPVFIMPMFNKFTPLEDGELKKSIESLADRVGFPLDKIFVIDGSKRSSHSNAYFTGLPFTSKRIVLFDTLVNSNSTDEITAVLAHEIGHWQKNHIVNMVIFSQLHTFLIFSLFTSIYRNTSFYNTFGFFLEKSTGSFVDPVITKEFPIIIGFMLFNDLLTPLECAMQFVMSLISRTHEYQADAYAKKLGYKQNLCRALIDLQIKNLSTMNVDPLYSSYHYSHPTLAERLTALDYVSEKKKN

Turning to `CC1=N/C(=C\c2ccc([N+](=O)[O-])cc2)C(=O)N1c1ccc(Cl)cc1`, the AC50 entry at Cytochrome P450 2D6 and on Cytochrome P450 2C19 was “inconclusive” each time.
Regarding `Cn1c(=O)c2nc(O)cnc2n(C)c1=S`, the values for the AC50 in [1] and in data set [2] were 45.3 µM (active) and 4.26 µM (active), respectively.
On to `O=C1C(c2ccncc2)N(CCC2=CCCCC2)C(=O)CN1C1CCCCC1` (centres undefined), for which the IC50 (commonly the midpoint of a concentration-inhibition curve) on Coagulation factor XII was > 50 µM (inactive).
Take `COc1ccc(-c2csc(Nc3ccc(S(=O)(=O)Nc4cc(OC)nc(OC)n4)cc3)n2)cc1`: in data set [3], the IC50 was 4.76 µM (active). For the same molecule, the half-maximal cytotoxic concentration (CC50) – broadly, the concentration at which the toxic effect on the cells reaches its halfway point – in data set [4] is 15.2 µM (active).
Consider `Cc1cc(C)n(C(=O)c2sc3cc(F)ccc3c2Cl)n1`, for which, on Integrin alpha-L, the EC50 (in general, the concentration that produces a half-maximal response) was 0.299 µM (active).
As for `CCN=C(S)NNC(=O)CCn1cc(C)cn1`, the AC50 (commonly the concentration at which the activity in the assay is half-maximal) on CAAX prenyl protease 1 is 32.4 µM (active).
